The source of these data is ChEMBL document CHEMBL1201862, “PubChem BioAssay data set” (2004).

Test systems include Malme-3M; HOP-62; CAKI-1; A498; EKVX; MOLT-4; K562; HL-60; OVCAR-5; COLO 205; OVCAR-3; SNB-19; TK-10; SK-OV-3; NCI-H23; M14; IGROV-1; DMS-114; KM12; HCT-15.
Holding throughout (assay): inhibition of tumour cell growth, NCI panel, 48 h

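How tested: cells in 96-well plates exposed to compound for 48 hours at five concentrations. The concentration for 50% growth inhibition is given as GI50.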 Activity calls are given as the source filed them. Cut-off read from the data, not from the text of the source: active = GI50 up to about 1.1 µM and inactive = higher.

With `COc1ccc(OC)c(/C=C/C(=O)C(C)(C)C)c1`, the GI50 in the assay on Malme-3M was 17.9 µM (inactive); in the assay with HOP-62, 23.3 µM (inactive); in the assay with CAKI-1 it was 20.6 µM (inactive); in the assay with A498, 28.1 µM (inactive); with EKVX, 16.4 µM (inactive); in the assay with MOLT-4, 13.6 µM (inactive). The GI50 in the assay on K562 is 20.8 µM (inactive); in the assay with HL-60 it was 14.7 µM (inactive); with OVCAR-5, > 10 µM (inactive); in the assay with COLO 205, 19 µM (inactive); with OVCAR-3, 23.3 µM (inactive); in the assay on SNB-19, 17.2 µM (inactive). Further, the GI50 was 26.4 µM (inactive) with TK-10; 37.2 µM (inactive) with SK-OV-3; 19.6 µM (inactive) in the assay with NCI-H23; 15.7 µM (inactive) in the assay with M14; 18.2 µM (inactive) in the assay with IGROV-1; 15.2 µM (inactive) in the assay with DMS-114. Moreover, the GI50 is 21.1 µM (inactive) with KM12 and 20.1 µM with HCT-15.
